From US20260374781A1, “NOVEL TRIHETEROCYCLIC COMPOUNDS” (IDENCE CO., LTD., priority 2022, published 2026)

Assays:
KRAS G12C = molecular target: T1, KRAS G12C (Homo sapiens, UniProt P01116, G12C); experiment: KRAS Nucleotide Exchange Assay (SOS1-mediated), G12C; type: biochemical; settings: HTRF, 60 minutes preincubation, approximately 25 minutes reaction
T1 construct: GST-tagged KRAS WT or mutant protein (amino acids 2-169)
Text: (§1) Test Example 1: KRAS Nucleotide Exchange Assay
(§2) Evaluation of the inhibitory effect of compounds on SOS1-mediated nucleotide exchange activity of KIRAS^WT, KRAS^G12D, KRAS^G12V, KRAS^G12C and KRAS^G13D mutants
(§3) The assay monitors SOS1 mediated exchange of KRAS bound unlabeled GDP to fluorescently labeled GTP. The detection is based on the transfer of energy between two fluorophores when they are in close proximity. Donor is the Tb cryptate labeled anti-GST antibody and acceptor is a DY-647P1 GTP.
(§4) • GST-tagged KRAS WT or mutant protein (amino acids 2-169), • SOS1 (amino acids 564-1049), • Labeled GTP (GTP-DY-647P1), • Assay Buffer (20 mM HEPES pH 7.4, 150 mM NaCl, 5 mM MgCl2, 1 mM DTT, 0.05% BSA, 0.0025% NP40)
(§5) • 1. KRAS protein was diluted with assay buffer to reach 1.5 times of the final concentration, then mixed with Tb cryptate anti-GST antibody and added at 10 μL to each assay well (all of the final concentration was 20 nM for KRAS^WT, KRAS^G12D, and KRAS^G12V) • 2. The compound was dissolved in DMSO and diluted to prepare 100 times of the final concentration. • 3. Compounds were dispensed into assay wells using an ECHO acoustic dispenser (Beckman), mixed gently with the KRAS/Ab mixture, and incubated for 60 minutes. • 4. SOS1 and labeled GTP were mixed, diluted to 3 times of the final concentration with assay buffer, and 5 μL of the solution was added to the assay well to initiate the reaction (final concentration of labeled GTP was […], final concentration of SOS1 was 7.5 nM in WT, 12.5 nM in G12D and 50 nM in G12V). Only assay buffer and labeled GTP were added to the blank well. • 5. The reaction was monitored at Ex/Em=(337/665; 337/620) using a Pherastar Plate Reader (BMG). • 6. HTRF signals were analyzed approximately 25 minutes after the start of the reaction (60 minutes reaction for G12V). • 7. Nucleotide exchange activity is expressed as a percentage difference compared to the DMSO reaction value, and the IC50 value was calculated based on the four-parameter logistic equation in GraphPad 4.0 software.

KRAS G12D = molecular target: T2, KRAS G12D (Homo sapiens, UniProt P01116, G12D); experiment: KRAS Nucleotide Exchange Assay (SOS1-mediated), G12D; type: biochemical; settings: HTRF, 20 nM KRAS, 12.5 nM SOS1, 60 minutes preincubation, approximately 25 minutes reaction
T2 construct: GST-tagged KRAS WT or mutant protein (amino acids 2-169)
Text: as §1, §2, §3, §4, §5

KRAS G12V = molecular target: T3, KRAS G12V (Homo sapiens, UniProt P01116, G12V); experiment: KRAS Nucleotide Exchange Assay (SOS1-mediated), G12V; type: biochemical; settings: HTRF, 20 nM KRAS, 50 nM SOS1, 60 minutes preincubation, 60 minutes reaction
T3 construct: GST-tagged KRAS WT or mutant protein (amino acids 2-169)
Text: as §1, §2, §3, §4, §5

SW480 cells = experiment: Cell Proliferation Assay, SW480 (CellTiter-Glo 2.0 viability); type: cell-based; settings: Homo sapiens; SW480 colon cancer (KRAS G12V mutation); 72 hours
Experimental: (§6) Test Example 3: Cell Proliferation Assay
(§7) Cell viability testing of test compounds in AsPC-1 pancreatic cancer (KRAS G12D mutation) or SW480 colon cancer (KRAS G12V mutation) cells for 72 hours
(§8) The reference compound Staurosporine was purchased from Sigma-Aldrich (Saint Louis, MI), and CellTiter-Glo® 2.0 Luminescent cell viability assay reagent (cat #G9243) was purchased from Promega (Madison, WI). AsPC-1 and SW480 cell lines were purchased from American Type Culture Collection (Manassas, VA). AsPC-1 cells were cultured with RPMI-1640 (ATCC, cat #30-2001) and SW480 cells were cultured with DMEM (ATCC cat #30-2002).
(§9) A medium supplemented with 10% FBS (Sigma-Aldrich, cat #F2442) and 100 µg/mL of penicillin-streptomycin (Sigma-Aldrich, cat #P4333) was used. Cells were cultured at 37 °C in a humidified atmosphere of 5% CO2 and 95% air.
(§10) • 1. The test compound and reference compound, Staurosporine were dissolved in DMSO solution to prepare 20 mM (test compound) and 10 mM (control compound, Staurosporine) in the Source Plate and diluted with DMSO to 3-fold and 10 doses. • 2. From the Source Plate, 10 volumes of 125 nL test compound or 25 nL reference compound were dispensed into wells of a 384-well culture plate (VWR, cat #82050-076) using Echo 655. • 3. 25 μL of culture medium including 2000 AsPC-1 or SW480 cells was dispensed into each 384-well cell culture plate. • 4. Cells were cultured with the compound for 72 hours at 37 °C and 5% CO2 conditions. • 5. 25 μL of CellTiter-Glo 2.0 reagent was added to each well of the plate. • 6. The contents were mixed for 2 minutes on an orbital shaker, and the luminescence signal was stabilized at room temperature for 15 minutes. • 7. Luminescence signals were measured with an Envision 2104 Multilabel Reader (PerkinElmer, Santa Clara, CA), and the number of surviving cells was determined through quantification of ATP present in each culture. • 8. IC50 values were calculated based on the Sigmoidal dose-response equation in the GraphPad Prism 4 program.

KRAS G13D = molecular target: T4, KRAS G13D (Homo sapiens, UniProt P01116, G13D); experiment: KRAS Nucleotide Exchange Assay (SOS1-mediated), G13D; type: biochemical; settings: HTRF, 60 minutes preincubation, approximately 25 minutes reaction
T4 construct: GST-tagged KRAS WT or mutant protein (amino acids 2-169)
Text: as §1, §2, §3, §4, §5

AsPC-1 cells = experiment: Cell Proliferation Assay, AsPC-1 (CellTiter-Glo 2.0 viability); type: cell-based; settings: Homo sapiens, ASPC1, 72 h, AsPC-1 pancreatic cancer (KRAS G12D mutation)
Experimental: as §6, §7, §8, §9, §10

T3 sequence (P01116 2-169 isoform P01116-2 G12V): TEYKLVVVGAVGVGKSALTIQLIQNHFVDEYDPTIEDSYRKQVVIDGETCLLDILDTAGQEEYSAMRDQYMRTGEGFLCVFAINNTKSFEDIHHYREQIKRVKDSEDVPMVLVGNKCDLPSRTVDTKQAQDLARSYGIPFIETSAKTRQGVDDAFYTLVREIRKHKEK
T2 sequence (P01116 2-169 isoform P01116-2 G12D): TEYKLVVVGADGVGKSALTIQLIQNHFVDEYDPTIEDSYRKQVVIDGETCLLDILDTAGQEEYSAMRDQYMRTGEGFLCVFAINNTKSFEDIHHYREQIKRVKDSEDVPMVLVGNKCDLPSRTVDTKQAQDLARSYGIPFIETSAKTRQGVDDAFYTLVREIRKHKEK
T4 sequence (P01116 2-169 isoform P01116-2 G13D): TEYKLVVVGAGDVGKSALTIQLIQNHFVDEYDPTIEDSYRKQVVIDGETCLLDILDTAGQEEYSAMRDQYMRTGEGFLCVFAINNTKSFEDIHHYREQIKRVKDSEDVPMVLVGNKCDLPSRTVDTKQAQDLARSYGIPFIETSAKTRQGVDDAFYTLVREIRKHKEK
T1 sequence (P01116 2-169 isoform P01116-2 G12C): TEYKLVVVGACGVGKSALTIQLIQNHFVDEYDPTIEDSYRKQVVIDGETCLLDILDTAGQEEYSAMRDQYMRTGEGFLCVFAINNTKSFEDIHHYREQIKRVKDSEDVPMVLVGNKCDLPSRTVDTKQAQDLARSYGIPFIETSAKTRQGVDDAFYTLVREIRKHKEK

Row | SMILES | IC50 (KRAS G12C) | IC50 (KRAS G12D) | IC50 (KRAS G12V) | IC50 (SW480 cells) | IC50 (KRAS G13D) | IC50 (AsPC-1 cells)
1 | CCc1c(F)ccc2cc(O)cc(-c3nc4c5c(nc(OC[C@@]67CCCN6C[C@H](F)C7)nc5c3F)N(C(C)c3cccnc3N)CCO4)c12 (mixture of isomers) [Example 14, 4-(10-(1-(2-aminopyridin-3-yl)ethyl)-4-fluoro-2-(((2R,7aS)-2-fluorotetrahydro-1H-pyrrolizin-7a(5H)-yl)methoxy)-9,10-dihydro-8H-7-oxa-1,3,6,10-tetraazacyclohepta[de]naphthalen-5-yl)-5-ethyl-6-fluoronaphthalen-2-ol] | 1.78 nM | 3.79 nM | 2.79 nM | < 1000 nM | 8.71 nM | < 1000 nM
2 | C[C@H](c1cccnc1N)N1C[C@H](C)Oc2nc(-c3cc(O)cc4ccc(F)c(F)c34)c(F)c3nc(OC[C@@]45CCCN4C[C@H](F)C5)nc1c23 (stereo in doubt) [Example 10a, 4-((S)-10-((R)-1-(2-aminopyridin-3-yl)ethyl)-4-fluoro-2-(((2R,7aS)-2-fluorotetrahydro-1H-pyrrolizin-7a(5H)-yl)methoxy)-8-methyl-9,10-dihydro-8H-7-oxa-1,3,6,10-tetraazacyclohepta[de]naphthalen-5-yl)-5,6-difluoronaphthalen-2-ol] | 0.608 nM | 3.67 nM | 1.59 nM | – | 6.97 nM | > 10000 nM
3 | C#Cc1c(F)ccc2cc(O)cc(-c3nc4c5c(nc(OC[C@@]67CCCN6C[C@H](F)C7)nc5c3F)N(CC3(N(C)C)CCC3)CCO4)c12 [Example 2, 4-(10-((1-(dimethylamino)cyclobutyl)methyl)-4-fluoro-2-(((2R,7aS)-2-fluorotetrahydro-1H-pyrrolizin-7a(5H)-yl)methoxy)-9,10-dihydro-8H-7-oxa-1,3,6,10-tetraazacyclohepta[de]naphthalen-5-yl)-5-ethynyl-6-fluoronaphthalen-2-ol] | – | 1.34 nM | – | – | – | 1000 to 10000 nM
4 | CCc1c(F)ccc2cc(O)cc(-c3nc4c5c(nc(OC[C@@]67CCCN6C[C@H](F)C7)nc5c3F)N(C(C)c3cccnc3N)C[C@H](C)O4)c12 (stereo partly drawn) [Example 3, 4-((8S)-10-(1-(2-aminopyridin-3-yl)ethyl)-4-fluoro-2-(((2R,7aS)-2-fluorotetrahydro-1H-pyrrolizin-7a(5H)-yl)methoxy)-8-methyl-9,10-dihydro-8H-7-oxa-1,3,6,10-tetraazacyclohepta[de]naphthalen-5-yl)-5-ethyl-6-fluoronaphthalen-2-ol] | – | 8.69 nM | 3.25 nM | – | – | > 10000 nM
5 | CCc1c(F)ccc2cc(O)cc(-c3nc4c5c(nc(OC[C@@]67CCCN6C[C@H](F)C7)nc5c3F)N([C@H](C)c3cccnc3N)C[C@H](C)O4)c12 [Example 3a, 4-((S)-10-((R)-1-(2-aminopyridin-3-yl)ethyl)-4-fluoro-2-(((2R,7aS)-2-fluorotetrahydro-1H-pyrrolizin-7a(5H)-yl)methoxy)-8-methyl-9,10-dihydro-8H-7-oxa-1,3,6,10-tetraazacyclohepta[de]naphthalen-5-yl)-5-ethyl-6-fluoronaphthalen-2-ol] | – | 5.76 nM | 2.19 nM | – | – | > 10000 nM
6 | CCc1c(F)ccc2cc(O)cc(-c3nc4c5c(nc(OC[C@@]67CCCN6C[C@H](F)C7)nc5c3F)N([C@@H](C)c3cccnc3N)C[C@H](C)O4)c12 [Example 3b, 4-((S)-10-((S)-1-(2-aminopyridin-3-yl)ethyl)-4-fluoro-2-(((2R,7aS)-2-fluorotetrahydro-1H-pyrrolizin-7a(5H)-yl)methoxy)-8-methyl-9,10-dihydro-8H-7-oxa-1,3,6,10-tetraazacyclohepta[de]naphthalen-5-yl)-5-ethyl-6-fluoronaphthalen-2-ol] | – | 176 nM | 62.1 nM | – | – | –
